Measurements: ChEMBL document CHEMBL1201862, “PubChem BioAssay data set” (2004)
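Each compound was tested at five concentrations against cells in 96-well plates for 48 hours. GI50 = concentration required for 50% inhibition of growth.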 Activity calls are given as the source filed them. Cut-off read from the data, not from the text of the source: active = GI50 up to about 1.1 µM and inactive = higher.

Tests used:
Assay in all cases: NCI anticancer screen, dose series, 48 h
SNB-78 = tested on: SNB-78
U-251 = tested on: U-251
UACC-62 = tested on: UACC-62
NCI-H23 = tested on: NCI-H23
OVCAR-8 = tested on: OVCAR-8
OVCAR-3 = tested on: OVCAR-3
SW-620 = tested on: SW-620
CCRF-CEM = tested on: CCRF-CEM
KM12 = tested on: KM12
SF-295 = tested on: SF-295
SK-MEL-28 = tested on: SK-MEL-28
ACHN = tested on: ACHN
SNB-75 = tested on: SNB-75
A549 = tested on: A549
K562 = tested on: K562
A498 = tested on: A498
RXF 631 = tested on: RXF 631
IGROV-1 = tested on: IGROV-1
UO-31 = tested on: UO-31
HL-60 = tested on: HL-60
HT-29 = tested on: HT-29
Malme-3M = tested on: Malme-3M
HCT-116 = tested on: HCT-116
NCI-H226 = tested on: NCI-H226
OVCAR-5 = tested on: OVCAR-5
RPMI-8226 = tested on: RPMI-8226
NCI-H460 = tested on: NCI-H460
SF-539 = tested on: SF-539
UACC-257 = tested on: UACC-257
M19-MEL = tested on: M19-MEL
SK-MEL-5 = tested on: SK-MEL-5
DMS-273 = tested on: DMS-273
XF498 = tested on: XF498
DLD-1 = tested on: DLD-1
SK-OV-3 = tested on: SK-OV-3
OVCAR-4 = tested on: OVCAR-4
DMS-114 = tested on: DMS-114
MOLT-4 = tested on: MOLT-4
RXF 393 = tested on: RXF 393
TK-10 = tested on: TK-10
EKVX = tested on: EKVX
786-0 = tested on: 786-0
KM-20L2 = tested on: KM-20L2
CAKI-1 = tested on: CAKI-1
HCT-15 = tested on: HCT-15
SK-MEL-2 = tested on: SK-MEL-2
HOP-62 = tested on: HOP-62
M14 = tested on: M14
HCC 2998 = tested on: HCC 2998
COLO 205 = tested on: COLO 205
NCI-H522 = tested on: NCI-H522
SN12C = tested on: SN12C
LOX IMVI = tested on: LOX IMVI
SF-268 = tested on: SF-268
HOP-92 = tested on: HOP-92
LXFL 529 = tested on: LXFL 529
SNB-19 = tested on: SNB-19
HOP-18 = tested on: HOP-18

SMILES: Cn1cc(C(=O)/C(Cl)=C(\Cl)C(=O)O)c2ccccc21
- GI50 (SNB-78): > 100 µM (inactive)
- GI50 (U-251): > 100 µM (inactive)
- GI50 (UACC-62): > 100 µM (inactive)
- GI50 (NCI-H23): > 100 µM (inactive)
- GI50 (OVCAR-8): > 100 µM (inactive)
- GI50 (OVCAR-3): > 100 µM (inactive)
- GI50 (SW-620): > 100 µM (inactive)
- GI50 (CCRF-CEM): > 100 µM (inactive)
- GI50 (KM12): > 100 µM (inactive)
- GI50 (SF-295): > 100 µM (inactive)
- GI50 (SK-MEL-28): > 100 µM (inactive)
- GI50 (ACHN): > 100 µM (inactive)
- GI50 (SNB-75): > 100 µM (inactive)
- GI50 (A549): > 100 µM (inactive)
- GI50 (K562): > 100 µM (inactive)
- GI50 (A498): > 100 µM (inactive)
- GI50 (RXF 631): > 100 µM (inactive)
- GI50 (IGROV-1): > 100 µM (inactive)
- GI50 (UO-31): > 100 µM (inactive)
- GI50 (HL-60): > 100 µM (inactive)
- GI50 (HT-29): > 100 µM (inactive)
- GI50 (Malme-3M): > 100 µM (inactive)
- GI50 (HCT-116): > 100 µM (inactive)
- GI50 (NCI-H226): > 100 µM (inactive)
- GI50 (OVCAR-5): > 100 µM (inactive)
- GI50 (RPMI-8226): > 100 µM (inactive)
- GI50 (NCI-H460): > 100 µM (inactive)
- GI50 (SF-539): > 100 µM (inactive)
- GI50 (UACC-257): > 100 µM (inactive)
- GI50 (M19-MEL): > 100 µM (inactive)
- GI50 (SK-MEL-5): > 100 µM (inactive)
- GI50 (DMS-273): > 100 µM (inactive)
- GI50 (XF498): > 100 µM (inactive)
- GI50 (DLD-1): > 100 µM (inactive)
- GI50 (SK-OV-3): > 100 µM (inactive)
- GI50 (OVCAR-4): > 100 µM (inactive)
- GI50 (DMS-114): > 100 µM (inactive)
- GI50 (MOLT-4): > 100 µM (inactive)
- GI50 (RXF 393): > 100 µM (inactive)
- GI50 (TK-10): > 100 µM (inactive)
- GI50 (EKVX): > 100 µM (inactive)
- GI50 (786-0): > 100 µM (inactive)
- GI50 (KM-20L2): > 100 µM (inactive)
- GI50 (CAKI-1): > 100 µM (inactive)
- GI50 (HCT-15): > 100 µM
- GI50 (SK-MEL-2): > 100 µM (inactive)
- GI50 (HOP-62): > 100 µM (inactive)
- GI50 (M14): > 100 µM (inactive)
- GI50 (HCC 2998): > 100 µM (inactive)

SMILES: O=C(O)C1=C(Cl)c2ccccc2S1(=O)=O
- GI50 (SNB-78): > 100 µM (inactive)
- GI50 (COLO 205): > 100 µM (inactive)
- GI50 (UACC-62): > 100 µM (inactive)
- GI50 (NCI-H23): > 100 µM (inactive)
- GI50 (OVCAR-8): > 100 µM (inactive)
- GI50 (OVCAR-3): > 10 µM (inactive)
- GI50 (SW-620): > 100 µM (inactive)
- GI50 (CCRF-CEM): > 100 µM (inactive)
- GI50 (KM12): > 100 µM (inactive)
- GI50 (SF-295): > 100 µM (inactive)
- GI50 (SK-MEL-28): > 100 µM (inactive)
- GI50 (SNB-75): > 100 µM (inactive)
- GI50 (A549): > 100 µM (inactive)
- GI50 (K562): > 100 µM (inactive)
- GI50 (RXF 631): > 100 µM (inactive)
- GI50 (IGROV-1): > 100 µM (inactive)
- GI50 (UO-31): > 100 µM (inactive)
- GI50 (HL-60): > 100 µM (inactive)
- GI50 (NCI-H522): 19.8 µM (inactive)
- GI50 (Malme-3M): > 100 µM (inactive)
- GI50 (OVCAR-5): > 100 µM (inactive)
- GI50 (SN12C): > 100 µM (inactive)
- GI50 (RPMI-8226): > 100 µM (inactive)
- GI50 (NCI-H460): > 100 µM (inactive)
- GI50 (UACC-257): > 100 µM (inactive)
- GI50 (M19-MEL): > 100 µM (inactive)
- GI50 (SK-MEL-5): > 100 µM (inactive)
- GI50 (XF498): > 100 µM (inactive)
- GI50 (LOX IMVI): > 100 µM (inactive)
- GI50 (DLD-1): > 100 µM (inactive)
- GI50 (SF-268): > 100 µM (inactive)
- GI50 (SK-OV-3): > 100 µM (inactive)
- GI50 (OVCAR-4): > 100 µM (inactive)
- GI50 (HOP-92): > 100 µM (inactive)
- GI50 (DMS-114): > 100 µM (inactive)
- GI50 (MOLT-4): > 100 µM (inactive)
- GI50 (LXFL 529): > 100 µM (inactive)
- GI50 (RXF 393): > 100 µM (inactive)
- GI50 (TK-10): > 100 µM (inactive)
- GI50 (SNB-19): > 100 µM (inactive)
- GI50 (EKVX): > 100 µM (inactive)
- GI50 (786-0): > 100 µM (inactive)
- GI50 (KM-20L2): > 100 µM (inactive)
- GI50 (CAKI-1): > 100 µM (inactive)
- GI50 (HCT-15): > 100 µM
- GI50 (SK-MEL-2): > 100 µM (inactive)
- GI50 (HOP-62): > 100 µM (inactive)
- GI50 (M14): > 100 µM (inactive)
- GI50 (HCC 2998): > 100 µM (inactive)

SMILES: [O-][Cl+3]([O-])([O-])[O-].c1ccc(-c2[o+]c(-c3ccccc3)c(-c3ccccc3)c(-c3ccccc3)c2-c2ccccc2)cc1
- GI50 (SNB-78): > 100 µM (inactive)
- GI50 (COLO 205): > 100 µM (inactive)
- GI50 (U-251): > 100 µM (inactive)
- GI50 (UACC-62): > 100 µM (inactive)
- GI50 (NCI-H23): > 100 µM (inactive)
- GI50 (OVCAR-8): > 100 µM (inactive)
- GI50 (OVCAR-3): > 100 µM (inactive)
- GI50 (SW-620): > 100 µM (inactive)
- GI50 (SF-295): > 100 µM (inactive)
- GI50 (SK-MEL-28): > 100 µM (inactive)
- GI50 (ACHN): > 100 µM (inactive)
- GI50 (SNB-75): > 100 µM (inactive)
- GI50 (A549): > 100 µM (inactive)
- GI50 (A498): > 100 µM (inactive)
- GI50 (RXF 631): > 100 µM (inactive)
- GI50 (IGROV-1): > 100 µM (inactive)
- GI50 (UO-31): > 100 µM (inactive)
- GI50 (HL-60): > 100 µM (inactive)
- GI50 (HT-29): > 100 µM (inactive)
- GI50 (NCI-H522): > 100 µM (inactive)
- GI50 (HOP-18): > 100 µM (inactive)
- GI50 (Malme-3M): > 100 µM (inactive)
- GI50 (HCT-116): > 100 µM (inactive)
- GI50 (NCI-H226): > 100 µM (inactive)
- GI50 (OVCAR-5): > 100 µM (inactive)
- GI50 (SN12C): > 100 µM (inactive)
- GI50 (RPMI-8226): 24.9 µM (inactive)
- GI50 (NCI-H460): > 100 µM (inactive)
- GI50 (SF-539): > 100 µM (inactive)
- GI50 (UACC-257): > 100 µM (inactive)
- GI50 (M19-MEL): > 100 µM (inactive)
- GI50 (SK-MEL-5): > 100 µM (inactive)
- GI50 (DMS-273): > 100 µM (inactive)
- GI50 (LOX IMVI): > 100 µM (inactive)
- GI50 (DLD-1): > 100 µM (inactive)
- GI50 (SF-268): > 100 µM (inactive)
- GI50 (SK-OV-3): > 100 µM (inactive)
- GI50 (OVCAR-4): > 100 µM (inactive)
- GI50 (HOP-92): > 100 µM (inactive)
- GI50 (MOLT-4): 44.7 µM (inactive)
- GI50 (LXFL 529): > 100 µM (inactive)
- GI50 (RXF 393): 12 µM (inactive)
- GI50 (TK-10): > 100 µM (inactive)
- GI50 (EKVX): > 100 µM (inactive)
- GI50 (786-0): > 100 µM (inactive)
- GI50 (KM-20L2): > 100 µM (inactive)
- GI50 (CAKI-1): > 100 µM (inactive)
- GI50 (HCT-15): > 100 µM
- GI50 (SK-MEL-2): > 100 µM (inactive)
- GI50 (HOP-62): > 100 µM (inactive)
- GI50 (M14): > 100 µM (inactive)
- GI50 (HCC 2998): > 100 µM (inactive)
